This is an account of results in patent US20120276064A1, “METHODS AND COMPOSITIONS FOR REJUVENATION AND EXPANSION OF STEM CELLS” (priority 2011, published 2012).

In assay [1] the test system is myogenin protein expression in young MuSCs. Kind of assay: Myogenin immunofluorescence analysis of hydrogel-cultured MuSCs. The conditions noted are these: soft hydrogel, 10 μM, one week, compared to control. Format: cell-based, mouse. The protocol:
Myogenin immunofluorescence analysis. MuSCs from young mice were isolated and cultured on 12 kPa hydrogels with either 0.1% DMSO control or 10 μM SB202190. After one week of culture, cells were fixed with 0.5% paraformaldehyde in PBS. Fixed cells were blocked with 20% goat serum and 0.5% Triton X100 in PBS. Cells were stained with anti-myogenin antibody (Santa Cruz Biotechnology, Santa Cruz, Calif.) and then an AlexaFluor594-conjugated secondary antibody (Invitrogen). Nuclei were stained with Topro3 (Invitrogen)the Immunofluorescence images were acquired using a LSM510 laser-scanning confocal microscope (Carl Zeiss Microimaging) with a Plan NeoFluar 20x/0.75NA objective. Digital images were captured using LSM510 software. Images were composed and edited in Photoshop software (Adobe). Background was reduced and contrast was enhanced equivalently across all images of the same stain. Nuclear regions were identified by Topro3 staining using MetaMorph software (Molecular Devices, Sunnyvale, Calif.). Within each nuclear region, the myogenin intensity was integrated using MetaMorph software. Nuclear myogenin intensities from each condition were plotted in a log-scale histogram to establish a threshold defining myogenin-positive cells.

Assay [2] deals with old MuSCs transplanted into notexin-injured old muscle. The assay can be described thus: Syngeneic transplantation of cultured old MuSC progeny into notexin-injured old C57BL/6 muscles, engraftment. Type of assay: in vivo, mouse. The protocol:
MuSC transplantation. MuSCs were transplanted immediately following FACS isolation or after collection from cell culture directly into the tibialis anterior muscle of recipient mice as previously described. Cells from GFP/Luciferase or Myf5^nLacZl+/Luciferase mice were transplanted into gender-matched, hindlimb-irradiated NOD/SCID (Jackson) mice. NOD/SCID (2-4 months of age, median 2 months) mice were anesthetized with ketamine (2.4 mg per mouse) and xylazine (240 μg per mouse) by intraperitoneal injection then were irradiated by a single dose of 18 Gy administered to the hindlimbs, with the rest of the body shielded in a lead jig. Transplantation was performed within three days post-irradiation. […] Freshly isolated or cultured cells were counted by hemocytometer and resuspended at desired cell concentrations in PBS with 2.5% goat serum and 1 mM EDTA. Cells were collected from hydrogel cultures by incubation with 0.5% trypsin in PBS for 2 min at 37° C. and counted using a hemocytometer. […]
Bioluminescence imaging. […] Digital images were recorded and analyzed using Living Image software (Caliper LifeSciences). Images were analyzed with a consistent region-of-interest (ROI) placed over each hindlimb to calculate a bioluminescence signal. […]

For assay [3], the system named is p38 signaling (phosphorylation of the p38 substrate MK2). The assay can be described thus: Phospho-MK2 flow cytometry in primary myoblasts stimulated with anisomycin and TNF. Format: cell-based. The conditions noted are these: primary mouse myoblasts, 10 μM pretreatment one hour, anisomycin 1 μg/ml + TNF 50 ng/ml 30 min. The protocol:
Phospho-MK2 flow cytometry. To analyze p38 signaling, the phosphorylation of MK2, a readout of p38 kinase activity, was assayed by flow cytometry. Primary mouse myoblasts were isolated as previously described. Myoblasts were cultured on collagen-coated tissue-culture plastic dishes in myogenic cell medium and were maintained at 37° C. in 5% CO2. Myoblasts were pretreated with 0.1% DMSO carrier control or 10 μM SB202190 for one-hour and then were stimulated with anisomycin (1 μg/ml; Sigma) and TNF (50 ng/ml; R&D Systems, Minneapolis, Minn.) for 30 minutes or mock buffer (PBS). Pretreatments and stimuli were added in 50× spike solutions. After 15 minutes, cells were collected from hydrogel cultures by incubation 0.5% trypsin in PBS for 2 min at 37° C. Cells were fixed with 1.5% paraformaldehyde in PBS, permeabilized in methanol at −80° C., and stained with an AlexFluor488-conjugated antibody reactive to the phosphorylated (Thr334) form of MK2 (Cell Signaling). Cells were analyzed for phospho-MK2 positivity on a modified FACStar Plus flow cytometer using FACS Diva software (BD Biosciences).

Take `Oc1ccc(-c2nc(-c3ccncc3)c(-c3ccc(F)cc3)[nH]2)cc1` [SB202190]: the “Percentage of myogenin+ cells” value in assay [1] is on record as “greatly diminished”. The “Contribution to myofibers (histology)” value in assay [2] (progeny of 100 SB-treated old MuSCs, old recipient muscle, two months after transplantation) was “substantial contribution to myofibers”. Also, the “Engraftment frequency in aged syngeneic recipient muscle” value in assay [2] (progeny of 100 old MuSCs cultured with 10 μM SB, notexin-injured old C57BL/6 mice, one month) came out at 88%. For the same molecule, the “p38 signaling activity / MK2 phosphorylation” value is recorded as “prevents MK2 phosphorylation” in assay [3] and “substantially attenuated p38 signaling activity” in assay [3] (listed as SB).
